From publication PMC4258814, “Differences between murine arylamine N-acetyltransferase type 1 and human arylamine N-acetyltransferase type 2 defined by substrate specificity and inhibitor binding” (BMC Pharmacology & Toxicology, 2014)
Positions count from the first letter of the chain named.

Tests used:
(MOUSE)NAT2_F125S = biological target: T1, (MOUSE)NAT2_F125S (Mus musculus, UniProt P50295, F125S); test: Substrate specific N-acetylation profile; format: biochemical; details: for % specific activity values: (MOUSE)NAT2 F125S, substrate 500 μM, relative to substrate with highest specific activity (100%), mean of 3 ± SD
T1 construct: His tag (only implied by Ni-NTA purification) (cleaved yes); made in house; host or cells: E. coli Rosetta(DE3)pLysS
T1 sequence (P50295 1-290 F125S): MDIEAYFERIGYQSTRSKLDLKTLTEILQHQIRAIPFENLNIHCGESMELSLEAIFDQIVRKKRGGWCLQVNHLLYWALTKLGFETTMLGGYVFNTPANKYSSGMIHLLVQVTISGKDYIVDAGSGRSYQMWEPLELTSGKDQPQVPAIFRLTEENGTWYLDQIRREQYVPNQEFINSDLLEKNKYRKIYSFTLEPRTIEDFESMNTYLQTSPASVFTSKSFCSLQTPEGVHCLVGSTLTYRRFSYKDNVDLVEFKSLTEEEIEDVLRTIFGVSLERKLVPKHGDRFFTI

(MESAU)NAT2*1 = test system: (MESAU)NAT2*1; parameters: method as in PMID 15627487, PMID 18280460; details: substrate 500 μM, relative to substrate with highest specific activity (100%), mean of 3 ± SD, ref [8], [22]; cited from earlier work
(HUMAN)NAT2*4 = biological target: T2, (HUMAN)NAT2*4 (Homo sapiens, UniProt P11245); parameters: method as in PMID 15627487, PMID 18280460; details: substrate 500 μM, relative to substrate with highest specific activity (100%), mean of 3 ± SD, ref [8], [22]; cited from earlier work
T2 construct: made in house
T2 sequence (P11245 1-290): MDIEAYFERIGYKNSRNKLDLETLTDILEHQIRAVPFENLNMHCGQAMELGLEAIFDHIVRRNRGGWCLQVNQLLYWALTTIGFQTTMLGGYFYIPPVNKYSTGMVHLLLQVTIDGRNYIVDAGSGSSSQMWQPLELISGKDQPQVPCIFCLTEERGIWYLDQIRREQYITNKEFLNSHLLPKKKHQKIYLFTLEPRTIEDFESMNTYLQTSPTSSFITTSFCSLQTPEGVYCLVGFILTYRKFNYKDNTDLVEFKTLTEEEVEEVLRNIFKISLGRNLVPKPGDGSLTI

[1] = ref [56]–[61], cited from earlier work; for pKaH of acetyl acceptor amine: as summarised in text from Table S1
(MOUSE)NAT2_R127L = biological target: T3, (MOUSE)NAT2_R127L (Mus musculus, UniProt P50295, R127L); test: Substrate specific N-acetylation profile; format: biochemical; details: for % specific activity values: (MOUSE)NAT2 R127L, substrate 500 μM, relative to substrate with highest specific activity (100%), mean of 3 ± SD
T3 construct: made in house
T3 sequence (P50295 1-290 R127L): T1 sequence (P50295 1-290 F125S) with S125F, R127L

(MOUSE)NAT2*1 = biological target: T4, (MOUSE)NAT2*1 (Mus musculus, UniProt P50295); test: Substrate specific N-acetylation profile; format: biochemical; details: for % specific activity values: substrate 500 μM, relative to substrate with highest specific activity (100%), mean of 3 ± SD
T4 construct: made in house
T4 sequence (P50295 1-290): T1 sequence (P50295 1-290 F125S) with S125F

(HUMAN)NAT1*4 = test system: (HUMAN)NAT1*4; parameters: method as in PMID 15627487, PMID 18280460; details: substrate 500 μM, relative to substrate with highest specific activity (100%), mean of 3 ± SD, ref [8], [22]; cited from earlier work
(MOUSE)NAT1*1 = biological target: T5, (MOUSE)NAT1*1 (Mus musculus, UniProt P50294); test: Substrate specific N-acetylation profile; format: biochemical; details: for % specific activity values: substrate 500 μM, relative to substrate with highest specific activity (100%), mean of 3 ± SD
T5 construct: The open reading frame of (MOUSE)Nat1*1 [32] was subcloned; hexa-His (N, cleaved yes); made in house; host or cells: Escherichia coli BL21(DE3)CodonPlus-RIL
T5 sequence (P50294 1-290): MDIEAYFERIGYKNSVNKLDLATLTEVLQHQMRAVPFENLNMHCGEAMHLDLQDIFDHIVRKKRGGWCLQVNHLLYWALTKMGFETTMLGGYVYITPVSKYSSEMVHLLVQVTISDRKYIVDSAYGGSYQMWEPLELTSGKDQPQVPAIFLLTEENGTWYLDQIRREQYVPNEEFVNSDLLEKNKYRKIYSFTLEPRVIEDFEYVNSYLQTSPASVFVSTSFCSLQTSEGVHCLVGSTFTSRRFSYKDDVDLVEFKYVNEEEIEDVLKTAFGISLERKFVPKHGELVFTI

(MOUSE)NAT2_R127G = biological target: T6, (MOUSE)NAT2_R127G (Mus musculus, UniProt P50295, R127G); test: Substrate specific N-acetylation profile; format: biochemical; details: (MOUSE)NAT2 R127G; substrate 500 μM; relative to substrate with highest specific activity (100%); mean of 3 ± SD
T6 construct: made in house
T6 sequence (P50295 1-290 R127G): T1 sequence (P50295 1-290 F125S) with S125F, R127G

Row | SMILES | % specific activity values ((MOUSE)NAT2_F125S) [%] | % specific activity values ((MESAU)NAT2*1) [%] | % specific activity values ((HUMAN)NAT2*4) [%] | pKa(H) (NH3^+) [1] | % specific activity values ((MOUSE)NAT2_R127L) [%] | % specific activity values ((MOUSE)NAT2*1) [%] | % specific activity values ((HUMAN)NAT1*4) [%] | % specific activity values ((MOUSE)NAT1*1) [%] | % specific activity values ((MOUSE)NAT2_R127G) [%] | further results
1 | Nc1ccc(C(=O)O)cc1 [4ABA, 4-aminobenzoic acid] | 70 ± 2 | 100 ± 6 | 6 ± 1 | 2.4 | 8 ± 1 | 100 ± 2 | 100 ± 2 | 48 ± 6 | 8 ± 1 | pKaH of acetyl acceptor amine [1]: < 3; pKa(H) (COOH) [1]: 4.9; Maximal specific activity ((MOUSE)NAT2*1; best substrate, 500 μM): 196 µM/s/mg
2 | Nc1ccc(C(=O)N[C@@H](CCC(=O)O)C(=O)O)cc1 [4ABglu, 4-aminobenzoyl glutamate] | 19 ± 1 | 57 ± 3 | 3 ± 1 | 2.7 | 8 ± 1 | 87 ± 1 | 20 ± 1 | 8 ± 7 | 9 ± 1 | pKaH of acetyl acceptor amine [1]: < 3; pKa(H) (α-COOH) [1]: 3.6; pKa(H) (γ-COOH) [1]: 4.7
3 | Nc1ccc(C(=O)O)c(O)c1 [4AS, 4-aminosalicylate] | 75 ± 3 | 74 ± 3 | 7 ± 1 | 2.3 | 13 ± 1 | 55 ± 1 | 67 ± 2 | 88 ± 6 | 27 ± 1 | pKaH of acetyl acceptor amine [1]: < 3; pKa(H) (COOH) [1]: 6.0; pKa(H) (OH) [1]: 13.2
4 | COc1ccc(N)cc1OC [4AV, 4-aminoveratrole] | 90 ± 1 | 32 ± 1 | 57 ± 3 | 4.7 (NH3^+) | 100 ± 10 | 90 ± 1 | 25 ± 2 | 28 ± 6 | 66 ± 3 | Maximal specific activity ((MOUSE)NAT2_R127L; (MOUSE)NAT2_R127L, best substrate, 500 μM): 82.5 µM/s/mg
5 | Nc1ccc(Br)cc1 [4BA, 4-bromoaniline] | 47 ± 2 | 72 ± 1 | 72 ± 1 | 3.4 (NH3^+) | 81 ± 11 | 52 ± 2 | 50 ± 1 | 28 ± 6 | 70 ± 1 | 
6 | Nc1ccc(Cl)cc1 [4CA, 4-chloroaniline] | 56 ± 2 | 61 ± 2 | 71 ± 3 | 3.8 (NH3^+) | 70 ± 1 | 46 ± 4 | 36 ± 2 | 18 ± 3 | 54 ± 3 | 
7 | Nc1ccc(I)cc1 [4IA, 4-iodoaniline] | 69 ± 2 | 81 ± 1 | 65 ± 2 | 3.8 (NH3^+) | 74 ± 8 | 72 ± 3 | 63 ± 1 | 28 ± 3 | 97 ± 1 | 
8 | Nc1ccc(O)c(C(=O)O)c1 [5AS, 5-aminosalicylate] | 74 ± 1 | 30 ± 1 | 64 ± 2 |  | 65 ± 9 | 37 ± 1 | 64 ± 3 | 76 ± 6 | 94 ± 1 | 
9 | COc1ccc(N)cc1 [ANS, 4-methoxyaniline] | 100 ± 3 | 89 ± 1 | 9 ± 2 | 5.2 (NH3^+) | 77 ± 10 | 88 ± 6 | 56 ± 2 | 48 ± 1 | 97 ± 4 | Maximal specific activity ((MOUSE)NAT2_F125S; (MOUSE)NAT2_F125S, best substrate, 500 μM): 25 µM/s/mg
10 | NNc1nncc2ccccc12 [HDZ, hydralazine] | 19 ± 1 | 3 ± 1 | 100 ± 1 |  | 95 ± 1 | 8 ± 2 | 2 ± 1 | 68 ± 6 | 100 ± 2 | 
11 | CCCCCCOc1ccc(N)cc1 [HOA, 4-hexyloxyaniline] | 47 ± 1 | 35 ± 1 | 51 ± 2 | 5.1 (NH3^+) | 80 ± 8 | 23 ± 2 | 12 ± 4 | 3 ± 4 | 59 ± 3 | 
12 | NNC(=O)c1ccncc1 [INH, isoniazid] | 38 ± 2 | 1 ± 1 | 62 ± 2 |  | 76 ± 14 | 2 ± 2 | 0 ± 2 | 100 ± 6 | 63 ± 10 | pKa(H) (NH2^+-NH3^+) [1]: 2.0; pKa(H) (NH-NH3^+) [1]: 3.9; pKa(H) (pyridine) [1]: 10.8; Maximal specific activity ((MOUSE)NAT1*1; best substrate, 500 μM): 104 µM/s/mg
13 | Nc1ccc(Oc2ccccc2)cc1 [POA, 4-phenoxyaniline] | 62 ± 2 | 22 ± 1 | 62 ± 11 | 4.36 (NH3^+) | 61 ± 2 | 20 ± 2 | 17 ± 7 | 6 ± 1 | 67 ± 1 | 
